From patent US20110044938A1 (NYCOMED GMBH, priority 2006, published 2011)

Columns and labels:
[1] = tested on: RKO (RKOp27) human colon adenocarcinoma cells; test: Alamar Blue cell viability assay, anti-proliferative/cytotoxic activity on proliferating RKO subclones; assay type: cell-based; details: RKOp27, 72 h, RKO p27 uninduced (proliferating) cells, value = class bound given in Table A, read-out: −logIC50 RKO p27 uninduced (proliferating) (converted)
Description: The anti-proliferative/cytotoxic activity of the compounds described herein, can be tested on subclones of RKO (RKOp27) human colon adenocarcinoma cells (Schmidt et al., Oncogene 19, 2423-2429; 2000) using the Alamar Blue cell viability assay (described in O'Brien et al. Eur J Biochem 267, 5421-5426, 2000). The compounds are dissolved as 20 mM solutions in dimethylsulfoxide (DMSO) and subsequently diluted in semi-logarithmic steps. DMSO dilutions are further diluted 1:100 into Dulbecco's modified Eagle's medium (DMEM) containing 10% fetal calf serum to a final concentration twice as much as the final concentration in the test. RKO subclones are seeded into 96 well flat bottom plates at a density of 5000 cells per well in a volume of 50 μl per well. 24 hours after seeding the 50 μl each of the compound dilutions in DMEM medium are added into each well of the 96 Well plate. Each compound dilution is tested as quadruplicates. Wells containing untreated control cells are filled with 50 μl DMEM medium containing 1% DMSO. The cells are then incubated with the substances for 72 hours at 37° C. in a hunified atmosphere containing 5% carbon dioxide. To determine the viability of the cells, 10 μl of an Alamar Blue solution (Biosource) are added and the fluorescence is measured at an extinction of 544 nm and an emission of 590 nm. For the calculation of the cell viability the emission value from untreated cells is set as 100% viability and the emission rates of treated cells are set in relation to the values of untreated cells. Viabilities are expressed as % values.
The corresponding IC50 values of the compounds for anti-proliferative/cytotoxic activity are determined from the concentration-effect curves.
(§1) Representative −log IC50 [mol/l] values for anti-proliferation/cytotoxicity determined in the mentioned assays follow from the following table A, in which the numbers of the compound correspond to the numbers of the examples.

[2] = tested on: subclones of RKO colon adenocarcinoma cells (RKOp27 or RKOp21) arrested by Ponasterone A; test: Alamar Blue cell viability assay, cell cycle specific mode of action: cells arrested by ectopic p27Kip1 induced by Ponasterone A versus proliferating cells; assay type: cell-based; details: Homo sapiens, RKO p27 induced (arrested) cells, 10 μM Ponasterone A, 72 hours, value = class bound given in Table A, read-out: −logIC50 RKO p27 induced (arrested) (converted)
Description: To determine the cell cycle specific mode of action, subclones of RKO colon adenocarcinoma cells (RKOp27 or RKOp21 as described by Schmidt et al. in Oncogene 19, 2423-2429; 2000) are seeded into 96 well flat bottom plates at a density of 15000 cells per well in a volume of 50 μl per well in DMEM growth medium with 10% FCS containing 10 μM Ponasterone A. 24 hours after seeding the 50 μl each of the compound dilutions in DMEM medium are added into each well of the 96 Well plate. Each compound dilution is tested as quadruplicates. Wells containing untreated control cells are filled with 50 μl DMEM medium containing 1% DMSO. The cells are then incubated with the substances for 72 hours at 37° C. in a humidified athmosphere containing 5% carbon dioxide. To determine the viability of the cells, 10 μl of an Alamar Blue solution (Biosource) are added and the fluorescence was measured at an extinction of 544 nm and an emission of 590 nm. For the calculation of the cell viability the emission value from untreated cells is set as 100% viability and the emission rates of treated cells are set in relation to the values of untreated cells. Viabilities are expressed as % values. Viability is compared of proliferating cells grown in the absence of the inducer Ponasterone A, versus viability of cells arrested by the expression of ectopic p27Kip1 induced by Ponasterone A.
as §1

Row | SMILES | IC50 [1] | IC50 [2]
1 | CC(CC(=O)Nc1sc2c(c1C#N)CCC(OC(=O)N1CCOCC1)C2)c1ccccc1 (stereo not drawn) [Example 366, Morpholine-4-carboxylic acid 3-cyano-2-(3-phenyl-butanoyl-amino)-4,5,6,7-tetrahydro-benzo[b] thiophen-6-yl ester] | ≤ 501 nM | ≥ 50100 nM
2 | Cc1cc(CNC(=O)OC2CCc3c(sc(NC(=O)/C=C/c4cccnc4)c3C#N)C2)n(C)n1 (stereo not drawn) [Example 95, (2,5-Dimethyl-2H-pyrazol-3-ylmethyl)-carbamic acid 3-cyano-2-((E)-3-pyridin-3-yl-allanoylamino)-4,5,6,7-tetrahydro-benzo[b]thiophen-6-yl ester] | ≤ 501 nM | ≥ 100000 nM
3 | CS(=O)(=O)NC1CCN(C(=O)OC2CCc3c(sc(NC(=O)/C=C/c4cccnc4)c3C#N)C2)CC1 (stereo not drawn) [Example 127, 4-Methane-sulfonylamino-piperidine-1-carboxylic acid 3-cyano-2-((E)-3-pyridin-3-yl-allanoylamino)-4,5,6,7-tetrahydro-benzo[b]thiophen-6-yl ester] | ≤ 501 nM | ≥ 100000 nM
4 | N#Cc1c(NC(=O)/C=C/c2cccnc2)sc2c1CCC(OC(=O)NCC1CCCO1)C2 (stereo not drawn) [Example 70, (Tetrahydro-furan-2-ylmethyl)-carbamic acid 3-cyano-2-((E)-3-pyridin-3-yl-allanoylamino)-4,5,6,7-tetrahydro-benzo[b]thiophen-6-yl ester] | 501 to 2000 nM | ≥ 100000 nM
5 | COc1cccc(CCC(=O)Nc2sc3c(c2C#N)CCC(COC(=O)NCc2ccno2)C3)c1 (stereo not drawn) [Example 243, Isoxazol-5-ylmethyl-carbamic acid 3-cyano-2-[3-(3-methoxy-phenyl)-propanoylamino]-4,5,6,7-tetrahydro-benzo[b]thiophen-6-ylmethyl ester] | 501 to 2000 nM | ≥ 100000 nM
6 | Cc1cc(CNC(=O)OC[C@H]2CCc3c(sc(NC(=O)/C=C/c4cccnc4)c3C#N)C2)no1 [Example 47a, (S)-(5-Methyl-isoxazol-3-ylmethyl)-carbamic acid 3-cyano-2-((E)-3-pyridin-3-yl-allanoylamino)-4,5,6,7-tetrahydro-benzo[b]thiophen-6-ylmethyl ester] | ≤ 501 nM | ≥ 100000 nM
7 | CCOc1ccccc1CCC(=O)Nc1sc2c(c1C#N)CCC(OC(=O)NCc1cnn(C)c1)C2 (stereo not drawn) [Example 170, (1-Methyl-1H-pyrazol-4-ylmethyl)-carbamic acid 3-cyano-2-[3-(2-ethoxy-phenyl)-propanoylamino]-4,5,6,7-tetrahydro-benzo[b]thiophen-6-yl ester] | ≤ 501 nM | ≥ 100000 nM
8 | COc1cccc(CCC(=O)Nc2sc3c(c2C#N)CCC(COC(=O)OCc2nccs2)C3)c1 (stereo not drawn) [Example 262, Carbonic acid 3-cyano-2-[3-(3-methoxy-phenyl)-propanoylamino]-4,5,6,7-tetrahydro-benzo[b]thiophen-6-ylmethyl ester thiazol-2-ylmethyl ester] | 501 to 2000 nM | ≥ 50100 nM
9 | N#Cc1c(NC(=O)/C=C/c2cccnc2)sc2c1CCC(COC(=O)N1CC[C@@H](O)C1)C2 (stereo partly drawn) [Example 145, (R)-3-Hydroxy-pyrrolidine-1-carboxylic acid 3-cyano-2-((E)-3-pyridin-3-yl-allanoylamino)-4,5,6,7-tetrahydro-benzo[b]thiophen-6-ylmethyl ester] | ≤ 501 nM | ≥ 100000 nM
10 | N#Cc1c(NC(=O)/C=C/c2cccnc2)sc2c1CCC(COC(=O)NC1CCC1)C2 (stereo not drawn) [Example 98, Cyclobutyl-carbamic acid 3-cyano-2-((E)-3-pyridin-3-yl-allanoylamino)-4,5,6,7-tetrahydro-benzo[b]thiophen-6-ylmethyl ester] | ≤ 501 nM | ≥ 100000 nM
11 | Cc1ccncc1/C=C/C(=O)Nc1sc2c(c1C#N)CCC(COC(=O)N1CCC[C@@H](O)C1)C2 (stereo partly drawn) [Example 131, (R)-3-Hydroxy-piperidine-1-carboxylic acid 3-cyano-2-[(E)-3-(4-methyl-pyridin-3-yl)-allanoylamino]-4,5,6,7-tetrahydro-benzo[b]thiophen-6-ylmethyl ester] | ≤ 501 nM | ≥ 100000 nM
12 | N#Cc1c(NC(=O)CCc2cccnc2)sc2c1CCC(OC(=O)NC1CC1)C2 (stereo not drawn) [Example 161, Cyclopropyl-carbamic acid 3-cyano-2-(3-pyridin-3-yl-propanoylamino)-4,5,6,7-tetrahydro-benzo[b]thiophen-6-yl ester] | 501 to 2000 nM | ≥ 50100 nM
13 | COc1cccc(C(C)CC(=O)Nc2sc3c(c2C#N)CCC(COC(=O)NC2CCOCC2)C3)c1 (stereo not drawn) [Example 329, (Tetrahydro-pyran-4-yl)-carbamic acid 3-cyano-2-[3-(3-methoxy-phenyl)-butanoyl-amino]-4,5,6,7-tetrahydro-benzo[b] thiophen-6-ylmethyl ester] | 501 to 2000 nM | ≥ 50100 nM
14 | COc1cccc(C(C)CC(=O)Nc2sc3c(c2C#N)CCC(OC(=O)NCc2cc(C)nn2C)C3)c1 (stereo not drawn) [Example 273, (2,5-Dimethyl-2H-pyrazol-3-ylmethyl)-carbamic acid 3-cyano-2-[3-(3-methoxy-phenyl)-butanoylamino]-4,5,6,7-tetrahydro-benzo[b] thiophen-6-yl ester] | ≤ 501 nM | ≥ 100000 nM
15 | CC(CC(=O)Nc1sc2c(c1C#N)CCC(COC(=O)NC(C)c1ccccc1)C2)c1cccnc1 (stereo not drawn) [Example 283, (1-Phenyl-ethyl)-carbamic acid 3-cyano-2-(3-pyridin-3-yl-butanoylamino)-4,5,6,7-tetrahydro-benzo[b]thiophen-6-ylmethyl ester] | 501 to 2000 nM | ≥ 100000 nM
16 | COc1cccc(CCC(=O)Nc2sc3c(c2C#N)CCC(COC(=O)NCc2ccccn2)C3)c1 (stereo not drawn) [Example 235, Pyridin-2-ylmethyl-carbamic acid 3-cyano-2-[3-(3-methoxy-phenyl)-propanoylamino]-4,5,6,7-tetrahydro-benzo[b]thiophen-6-ylmethyl ester] | 501 to 2000 nM | ≥ 100000 nM
17 | COc1cccc(CCC(=O)Nc2sc3c(c2C#N)CCC(COC(=O)NCc2ccnn2C)C3)c1 (stereo not drawn) [Example 237, (2-Methyl-2H-pyrazol-3-ylmethyl)-carbamic acid 3-cyano-2-[3-(3-methoxy-phenyl)-propanoylamino]-4,5,6,7-tetrahydro-benzo[b]thiophen-6-ylmethyl ester] | 501 to 2000 nM | ≥ 100000 nM
18 | N#Cc1c(NC(=O)/C=C/c2cccnc2)sc2c1CCC(COC(=O)N1CC[C@@H](O)[C@@H](O)C1)C2 (stereo partly drawn) [Example 122, cis-3-, 4-Dihydroxy-piperidine-1-carboxylic acid 3-cyano-2-((E)-3-pyridin-3-yl-allanoylamino)-4,5,6,7-tetrahydro-benzo[b]thiophen-6-ylmethyl ester] | ≤ 501 nM | ≥ 100000 nM
19 | N#Cc1c(NC(=O)/C=C/c2cccnc2)sc2c1CCC(COC(=O)NC1CC1)C2 (stereo not drawn) [Example 99, Cyclopropyl-carbamic acid 3-cyano-2-((E)-3-pyridin-3-yl-allanoylamino)-4,5,6,7-tetrahydro-benzo[b]thiophen-6-ylmethyl ester] | ≤ 501 nM | ≥ 100000 nM
20 | COc1cccc(C(C)CC(=O)Nc2sc3c(c2C#N)CCC(COC(=O)NC(C)c2cccnc2)C3)c1 (stereo not drawn) [Example 335, (1-Pyridin-3-yl-ethyl)-carbamic acid 3-cyano-2-[3-(3-methoxy-phenyl)-butanoylamino]-4,5,6,7-tetrahydro-benzo[b] thiophen-6-ylmethyl ester] | 501 to 2000 nM | ≥ 50100 nM
21 | CCNC(=O)OCC1CCc2c(sc(NC(=O)CCc3ccccc3OCC)c2C#N)C1 (stereo not drawn) [Example 159, Ethyl-carbamic acid 3-cyano-2-[3-(2-ethoxy-phenyl)-propanoylamino]-4,5,6,7-tetrahydro-benzo[b]thiophen-6-ylmethyl ester] | ≤ 501 nM | ≥ 100000 nM
